# Measurements as given in US20100291592A1, “NOVEL MARKER FOR SENSITIVITY AGAINST SULFONAMIDE COMPOUND” (priority 2006, published 2010).
# System: cancer cell line resistant to E7070
# Experiment: not given
# Details: WO2006/030941 and WO2006/030947; cited from earlier work
row,SMILES,Cross-resistance of E7070-resistant cancer cell line (antiproliferative activity)
1,"O=C(NS(=O)(=O)c1ccc(Cl)cc1)c1ccc(Cl)cc1Cl [LY-ASAP, N-(2,4-dichlorobenzoyl)-4-chlorophenylsulfonamide]",cross-resistance
2,"Nc1ccc(S(=O)(=O)Nc2cnc3c(Cl)cccc3n2)cc1 [CQS, 2-sulfanylamide-5-chloroquinoxaline]",cross-resistance
3,"O=C(Nc1ccc(Cl)cc1)NS(=O)(=O)c1ccc2c(c1)CCC2 [LY186641, N-[[(4-chlorophenyl)amino]carbonyl]-2,3-dihydro-1H-indene-5-sulfonamide]",cross-resistance
4,"O=C(NS(=O)(=O)c1ccc(Br)s1)c1ccc(Cl)cc1Cl [LY573636, N-(2,4-dichlorobenzoyl)-5-bromothiophene-2-sulfonamide]",cross-resistance
5,"O=C(Nc1ccc(Cl)c(Cl)c1)NS(=O)(=O)c1ccc2c(c1)CCO2 [LY295501, N-[[(3,4-dichlorophenyl)amino]carbonyl]-2,3-dihydrobenzofuran-5-sulfonamide]",cross-resistance

# System: EGFR1
# Experiment: EGFR1 expression level in cultured HCT116-C9 (mass spectrometry, 12C/13C-leucine labelling)
# Type: cell-based, human
# Details: HCT116-C9, 1 μM E7070, 24 hours, LC-MS/MS, treated/untreated
# Procedure: First, RPMI-1640 (containing 10% FBS) supplemented with ^13C-labeled L-leucine (^13C-leucine, Cambridge Isotope Labs) and RPMI-1640 (containing 10% FBS) supplemented with non-isotope-labeled L-leucine (^12C-leucine) were prepared. Then, human colon cancer cell line HCT116-C9 was cultured in each medium through at least the fifth passage. HCT116-C9 was a subline separated from human colon cancer cell line HCT116 (obtained from ATCC) and known as a cell line highly sensitive to […] (Molecular Cancer Therapeutics, 2002, 1, 275-286). Thereafter, each cell was seeded in a 15-cm-diameter culture dish at a concentration of 1.0×10^7 cells/50 ml. Then, 24 hours later, 1 μM of […] was added to HCT116-C9 cultured in the ^12C-leucine-containing medium and nothing was added to HCTZ 16-C9 cultured in the ^13C-leucine-containing medium. These cells were continued culturing. Twenty-four hours later, the cells were washed twice with a phosphate buffer saline according to a routine procedure, added with 3 ml of M-PER (PIERCE) to solubilize the cells and then equal amounts of them were mixed. The cell lysates were dialyzed by a routine procedure to sublimate the solutions, and digested with trypsin, thereby obtaining peptide samples. The resulting peptide samples were analyzed with LC-MS/MS. […]
row,SMILES,Peak intensity ratio (12C/13C) of EGFR1-derived peptide fragment
1,"NS(=O)(=O)c1ccc(S(=O)(=O)Nc2cccc3c(Cl)c[nH]c23)cc1 [E7070, N-(3-chloro-1H-indole-7-yl)-1,4-benzenedisulfonamide]",0.6-0.8
